From patent US9790351B2, “Fat-binding compositions” (Eastpond Laboratories Limited, priority 2010, dated 2017)
Structures can show the parent of a compound that is named as a salt. One block for each molecule: values may come before it.

Tests used:
[1] = Binding constants of flavorants, microcalorimetric method and GC flavorant retention
Source text: The tested compounds included those that are generally soluble or miscible in water. The complexes with the cyclodextrins were formed using methods corresponding to the two specifically described examples below involving apricot flavorant and banana flavorant.
Two types of methods were used to determine the apparent binding constants noted above. The “microcalorimetric” method was used as described in Lewis et al., “Thermodynamics of binding of guest molecules to alpha- and beta-cyclodextrins,” J. Chem. Soc. Perkin. Trans. 2, (15) pp. 2081-2085, 1973, the complete disclosure of which is hereby incorporated by reference for all purposes. Also, by measuring the flavorant retention in the inclusion complexes and the corresponding mechanical mixtures (identical composition except that linear dextrin is used in place of cyclodextrins) with gas chromatography, according to the method described by Reineccius et al., “Encapsulation of flavors using cyclodextrins: comparison of flavor retention in alpha, beta, and gamma types,” Journal of Food Science, 67(9), pp. 3271-3279 (2002), the complete disclosure of which is hereby incorporated by reference for all purposes.

HepG2 cells = settings: cited from earlier work
[2] = Phase-solubility study of binding constant (Higuchi et al.); settings: in water, 1:1 complex
Source text: The resulting 1:1, molar ratio betanin/alpha-cyclodextrin inclusion complex was a red colored, free flowing powder containing 32% betanin by weight, as determined by visible spectrophotometry. […] N. Reilly, Wiley, New York, 1965. vol. 4. pp. 117-212, the complete disclosure of which is hereby incorporated by reference for all purposes. The binding constant of the complex was Kass=85-105 M^−1

[3] = Association constants by capillary electrophoresis; format: binding; settings: for Association constant, α-Cyclodextrin / Association constant, β-Cyclodextrin / Association constant, γ-Cyclodextrin: aqueous system, mean of three parallel determinations
Method: The association or binding constants of several selected weak complex-forming guest molecules with alpha-, beta- and gamma-cyclodextrins were experimentally determined. Capillary electrophoresis was utilized to determine the complex binding constants of selected dietary supplements thiamine, niacin and L-arginine in aqueous systems. The following values were determined:
Similarly, capillary electrophoresis was utilized to determine the complex binding constants of selected flavorants ethyl acetate, isoamyl acetate, diacetyl, and N,N-dimethyl formamide with alpha-, beta- and gamma-cyclodextrins.

[4] = cited from earlier work
[5] = Fat binding by a mixture of alpha-, beta- and gamma-cyclodextrins in water (precipitated inclusion complex); settings: 0.01M each cyclodextrin and palmitic acid, 4 hours, ambient temperature
Source text: This reaction mixture was stirred for four hours at ambient temperature. […] The precipitate was removed by centrifugation.

[6] = Apparent binding constant determined by chromatography; settings: in water at 25° C.
Method: Also, the apparent binding constant of the alpha-cyclodextrin N-tert-butyl-hydroxylamine complex was determined by chromatography.

[7] = Laser light scattering particle size distribution of dissolved alpha-cyclodextrin (aggregation); format: physicochemical
Source text: These solutions were then subjected to laser light scattering to determine the distribution of particle sizes in each solution. […] Cyclodextrin molecules in a less aggregated form likely include more available binding sites for complex formation. This experiment thus provides evidence that is consistent with the conclusion that carbonation allows for the availability of more cyclodextrin binding sites for forming complexes with fats.

Compound: CCCCC(=O)OCC [ethyl valerate]
Calculated Binding Constants, complex formed with alpha-cyclodextrin [1]: 46 M⁻¹
Calculated Binding Constants, complex formed with beta-cyclodextrin [1]: 80 M⁻¹

Compound: NCCS(=O)(=O)O [taurine]
secretion of apolipoprotein and lipids (HepG2 cells): reduce the secretion of apolipoprotein 8100 and lipids

Compound: O=C(O)c1cccnc1 [Nicotinic acid]
Association constant, α-Cyclodextrin [3]: 17 ± 2
Association constant, β-Cyclodextrin [3]: 37 ± 3
Association constant, γ-Cyclodextrin [3]: 10 ± 2

Compound: CN(CC(=O)O)C(=N)N [creatine]
intelligence ([4]; diet supplementation, compared with placebo): significantly increased intelligence
cognitive ability ([4]; elderly): improved cognitive ability

Compound: CC(=O)C(C)=O [diacetyl]
Association constant K, α-Cyclodextrin [3]: 28 M⁻¹
Association constant K, β-Cyclodextrin [3]: 43 M⁻¹
Association constant K, γ-Cyclodextrin [3]: 58 M⁻¹

Compound: CC(=O)OCCC(C)C [isoamyl acetate]
Association constant K, α-Cyclodextrin [3]: 729 M⁻¹
Association constant K, β-Cyclodextrin [3]: 382 M⁻¹
Association constant K, γ-Cyclodextrin [3]: 32 M⁻¹

Compound: CCOC(C)=O [Ethyl acetate]
Calculated Binding Constants, complex formed with alpha-cyclodextrin [1]: 60 M⁻¹
Calculated Binding Constants, complex formed with beta-cyclodextrin [1]: 100 M⁻¹
Association constant K, α-Cyclodextrin [3]: 37 M⁻¹
Association constant K, β-Cyclodextrin [3]: 10 M⁻¹
Association constant K, γ-Cyclodextrin [3]: 9 M⁻¹

Compound: N=C(N)NCCC[C@H](N)C(=O)O [L-arginine]
Association constant, α-Cyclodextrin [3]: 21 ± 2
Association constant, β-Cyclodextrin [3]: 100 ± 5
Association constant, γ-Cyclodextrin [3]: 9 ± 2

Compound: CCCCOC(C)=O [Butyl acetate]
Calculated Binding Constants, complex formed with alpha-cyclodextrin [1]: 72 M⁻¹
Calculated Binding Constants, complex formed with beta-cyclodextrin [1]: 85 M⁻¹

Compound: Cc1ncc(C[n+]2csc(CCO)c2C)c(N)n1 [Thiamine HCl]
Association constant, α-Cyclodextrin [3]: 20 ± 2
Association constant, β-Cyclodextrin [3]: 73 ± 3
Association constant, γ-Cyclodextrin [3]: 8 ± 1

Compound: CCCCCOC(C)=O [Amyl acetate]
Calculated Binding Constants, complex formed with alpha-cyclodextrin [1]: 85 M⁻¹
Calculated Binding Constants, complex formed with beta-cyclodextrin [1]: 40 M⁻¹

Now from value to molecule:

Calculated Binding Constants, complex formed with alpha-cyclodextrin [1]: 45 M⁻¹
Calculated Binding Constants, complex formed with beta-cyclodextrin [1]: 34 M⁻¹
Compound: C=CCOC(=O)CCC [allyl butyrate]

binding constant Kass [2]: 85 to 105 M⁻¹
Compound: O=C(O)C1=C/C(=C/C=[N+]2/c3cc(O)c(OC4OC(CO)[C@@H](O)C(O)C4O)cc3CC2C(=O)[O-])CC(C(=O)O)N1 (stereo in doubt) [betanin]

share of the cyclodextrin/palmitic acid complex in the precipitated complex [5]: undetectable amounts
Compound: OC[C@H]1O[C@@H]2O[C@H]3[C@H](O)[C@@H](O)[C@@H](O[C@H]4[C@H](O)[C@@H](O)[C@@H](O[C@H]5[C@H](O)[C@@H](O)[C@@H](O[C@H]6[C@H](O)[C@@H](O)[C@@H](O[C@H]7[C@H](O)[C@@H](O)[C@@H](O[C@H]8[C@H](O)[C@@H](O)[C@@H](O[C@H]9[C@H](O)[C@@H](O)[C@@H](O[C@H]1[C@H](O)[C@H]2O)O[C@@H]9CO)O[C@@H]8CO)O[C@@H]7CO)O[C@@H]6CO)O[C@@H]5CO)O[C@@H]4CO)O[C@@H]3CO [gamma-cyclodextrin]

apparent binding constant [6]: 80 to 105 M⁻¹
Compound: CC(C)(C)NO [N-tert-butyl-hydroxylamine]

Calculated Binding Constants, complex formed with alpha-cyclodextrin [1]: 67 M⁻¹
Calculated Binding Constants, complex formed with beta-cyclodextrin [1]: 45 M⁻¹
Compound: CCCCCOC(=O)CCCC [amyl valerate]

Calculated Binding Constants, complex formed with alpha-cyclodextrin [1]: 70 M⁻¹
Calculated Binding Constants, complex formed with beta-cyclodextrin [1]: 98 M⁻¹
Compound: Cc1occc(=O)c1O [maltol]

Calculated Binding Constants, complex formed with alpha-cyclodextrin [1]: 95 M⁻¹
Calculated Binding Constants, complex formed with beta-cyclodextrin [1]: 110 M⁻¹
Compound: CCCCOC(=O)CC(C)C [butyl isovalerate]

particle size of cyclodextrin particles ([7]; 2% w/v in carbonated water): < 500 nm
particle size of the majority of cyclodextrin particles ([7]; 2% w/v in non-carbonated tap water): ~1,000 nm
share of the cyclodextrin/palmitic acid complex in the precipitated complex [5]: about 78%
Compound: OC[C@H]1O[C@@H]2O[C@H]3[C@H](O)[C@@H](O)[C@@H](O[C@H]4[C@H](O)[C@@H](O)[C@@H](O[C@H]5[C@H](O)[C@@H](O)[C@@H](O[C@H]6[C@H](O)[C@@H](O)[C@@H](O[C@H]7[C@H](O)[C@@H](O)[C@@H](O[C@H]1[C@H](O)[C@H]2O)O[C@@H]7CO)O[C@@H]6CO)O[C@@H]5CO)O[C@@H]4CO)O[C@@H]3CO [alpha-cyclodextrin]
